For this series, the system named is Chinese Hamster Ovary (CHO) cell. Description: MTT cytotoxicity in CHO cells, with and without activation by NADPH-supplemented rat liver microsomes. In kind it is cell-based. Conditions: for IC50: Cricetulus griseus, CHO, cells incubated 24 hours, MTT, mean±sd for three experiments. As to the method:
Test compound (synthesised in example 3) activation by CYP enzymes was carried out using NADPH supplemented rat liver microsomes; Incubation mixtures comprised microsomal protein (1 mg/ml), reduced-nicotinamide adenine dinucleotide phosphate (NADPH, 10 mM) and phosphate buffer (pH7.4, 100 mM). Test compound (0.01-100 μM final concentration) in DMSO (20 μl) was added to the microsomal incubation mixtures (0.5 ml) and incubated for 60 min at 37C. Control incubates contained test compound and microsomal incubation mixture terminated at 0 time. All incubations were terminated by addition of an equal volume of ice-cold acetonitrile and microfuged for 3 min. Aliquots of the supernatant were added to cells in culture.
Chinese Hamster Ovary (CHO) cell were grown in MEM supplemented with. 10% dialysed FBS and G418 (400 μg/ml). All cells were seeded at an initial density of 1000 cells/well in 96-well-plates, incubation at 37° C. for 24 hours. Aliquots (0.1 ml) of the test compound/microsomal/acetonitrile supernatnant was then added to the CHO cells. Cells were then incubated for 24 hours at 37° C., 5% CO2. After this time period MTT (50 μl; 2 mg/ml stock solution) was added to each well and cells were incubated for a further 4 hours. During this time period MTT, a hydrogen acceptor tetrazolium salt, is reduced to formazan dye by mitochondrial dehydrogenase of viable cells. The media was aspirated from cells and DMSO (100 μl/well) added to solubilise the coloured formazan dye. Absorbance of the formazan dye in the 96-well-plates was then determined at 550 nm. The effect of microsomal activation by the test compound on the arrest of CHO cell growth could be determined by comparing the IC50 (concentration that inhibited cell growth by 50%) with and without microsomal incubation.
Effect of compound 3.8 and its metabolism (activation) product on the survival of Chinese hamster ovary cells in culture. Cells were incubated for 24 hours with supernatants from reaction mixtures of compound 3.8 with NADPH fortified rat liver microsomes. […] Values are expressed as the mean±sd for three experiments. […]

Structures are written as SMILES. Marks after values point to notes of the source that are not given here.

As a reminder, the IC50 is the concentration needed to halve the response being measured. Higher therefore signals a need for much substance.

Regarding `CCOC(=O)c1cc2c3c(ccc2[nH]1)N(C(=O)c1cc2cc(OC)ccc2[nH]1)CC3CCl` (stereo not drawn) [3.8, Ethyl 1-(chloromethyl)-3-((5-methoxy-1H-indol-2-yl)carbonyl)-1,2-dihydro-3H-pyrrolo[3,2-e]indole-7-carboxylate], the “AF (activity factor, ratio of IC50 cytotoxicity values obtained for ± activation)” value (CHO cells, IC50 −activation / IC50 +activation) is given as 71.7*. The IC50 is 4300 ± 410 nM (control incubate terminated at 0 time (no microsomal activation)) and 60 ± 20 nM (supernatant after 60 min incubation at 37C with NADPH-fortified rat liver microsomes).

(Values after patent US7626026B2, “Pyrrolo-indole and pyrrolo-quinoline derivatives as prodrugs for tumour treatment” (University of Bradford, priority 2001, dated 2009).)
